Measured values: patent publication US20250195521A1 (Revolution Medicines, Inc., priority 2020, published 2025)
Several values for one entry are separate records, joined by “and”; a condition that tells them apart may be missing. Equal entries are not always repeated. Where two headings read alike, the source gives them in different places.

Assays:
NCI-H358 (K-Ras G12C) = test: CellTiter-Glo cell viability assay, NCI-H358; type: cell-based, human; conditions: Homo sapiens, NCI-H358, 120 h, 5-day treatment; read-out: H358 Cell Viability assay data (K-Ras G12C, IC50)
How it was run: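 Luminescent CellTiter-Glo read-out on day 5 after compound exposure; signal expressed as percent of mean DMSO control; four-parameter logistic fit gives the value.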

KRAS G12C = KRAS G12C (Homo sapiens (Human), UniProt P01116+P62937, G12C); test: Ras-Raf disruption/FRET/MOA assay (BRAF RBD, Cyclophilin A); type: biochemical; conditions: read-out: KRAS G12C FRET IC50
How it was run: (§1)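 25 μM tagless Cyclophilin A, 12.5 nM His6-Ras-GMPPNP and 50 nM GST-BRAF RBD in HEPES pH 7.3 buffer with 5 mM MgCl2, with compound (10-point 3-fold series from 30 μM final) for 3 h at 25 °C. Anti-His Eu and anti-GST APC then added for 1.5 h. IC50 from TR-FRET ratio decrease versus DMSO.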

NRAS G12C = NRAS G12C (Homo sapiens (Human), UniProt P01111+P62937, G12C); test: as above; type: biochemical; conditions: read-out: NRAS G12C FRET data IC50
How it was run: (§2)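 Ras-GMPPNP (12.5 nM), BRAF RBD (50 nM) and 25 μM Cyclophilin A were incubated with compound for 3 h at 25° C, then detected 1.5 h with anti-His Eu and anti-GST APC; IC50 values follow from the reduced TR-FRET ratio.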

KRAS G12V = KRAS G12V (Homo sapiens (Human), UniProt P01116+P62937, G12V); test: as above; type: biochemical; conditions: read-out: KRAS G12V FRET IC50
How it was run: as §1

NRAS Q61K = NRAS Q61K (Homo sapiens (Human), UniProt P01111+P62937, Q61K); test: as above; type: biochemical
How it was run: as §2

NRAS Q61R = NRAS Q61R (Homo sapiens (Human), UniProt P01111+P62937, Q61R); test: as above; type: biochemical
How it was run: as §2

NRAS WT = NRAS WT (Homo sapiens (Human), UniProt P01111+P62937); test: as above; type: biochemical
How it was run: as §2

KRAS G12D = KRAS G12D (Homo sapiens (Human), UniProt P01116+P62937, G12D); test: as above; type: biochemical; conditions: read-out: KRAS G12D FRET IC50
How it was run: as §1

KRAS WT = KRAS WT (Homo sapiens (Human), UniProt P01116+P62937); test: as above; type: biochemical; conditions: read-out: KRAS WT FRET data IC50
How it was run: as §1

KRAS G13C = KRAS G13C (Homo sapiens (Human), UniProt P01116+P62937, G13C); test: as above; type: biochemical; conditions: read-out: KRAS G13C FRET IC50
How it was run: as §1

KRAS G12S = KRAS G12S (Homo sapiens (Human), UniProt P01116+P62937, G12S); test: as above; type: biochemical; conditions: read-out: KRAS G12S FRET IC50
How it was run: as §1

KRAS Q61H = KRAS Q61H (Homo sapiens (Human), UniProt P01116+P62937, Q61H); test: as above; type: biochemical
How it was run: as §1

KRAS G13D = KRAS G13D (Homo sapiens (Human), UniProt P01116+P62937, G13D); test: as above; type: biochemical; conditions: read-out: KRAS G13D FRET data IC50
How it was run: as §1

[1] = molecular target: K-Ras G12C(GMP-PNP) binding to BRAF RBD (Homo sapiens (Human), UniProt P01116+P62937, G12C); test: Disruption of BRAF RBD interaction with K-Ras (FRET / MOA assay), K-Ras G12C; type: biochemical; conditions: read-out: KRAS G12C FRET IC50
How it was run: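 First, test compounds in a 10-point 3-fold series (30 μM final top) were incubated for 3 hours at 25° C with nucleotide-loaded Ras, cyclophilin A and a BRAF RBD construct. Next, Eu anti-His and allophycocyanin anti-GST detection reagents were added for 1.5 hours. Finally, IC50s were derived from loss of TR-FRET signal against DMSO.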

[2] = tested on: Capan-1 cells (K-Ras G12V); test: CellTiter-Glo cell viability, Capan-1; type: cell-based, human; conditions: Homo sapiens, CAPAN-1, 120 h, read-out: Capan-1 Cell Viability IC50
How it was run: (§3)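 Luminescence read on day 5 after ~30 min room-temperature equilibration; compounds added directly to plated cells. Values = (sample signal/avg DMSO)*100, four-parameter logistic fit.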

[3] = tested on: NCI-H358 cells (K-Ras G12C); test: CellTiter-Glo cell viability, NCI-H358; type: cell-based, human; conditions: Homo sapiens, NCI-H358, 120 h, read-out: H358 Cell Viability IC50
How it was run: as §3

Sequence of KRAS G12D (P01116 other isoform, or with tags, fused parts or gaps G12D): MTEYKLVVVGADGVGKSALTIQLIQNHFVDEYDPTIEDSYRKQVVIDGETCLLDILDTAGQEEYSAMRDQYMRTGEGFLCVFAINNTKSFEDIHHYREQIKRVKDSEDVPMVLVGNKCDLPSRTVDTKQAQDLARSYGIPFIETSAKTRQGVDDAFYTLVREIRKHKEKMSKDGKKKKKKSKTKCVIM
Sequence of KRAS G12D (P62937 whole entry): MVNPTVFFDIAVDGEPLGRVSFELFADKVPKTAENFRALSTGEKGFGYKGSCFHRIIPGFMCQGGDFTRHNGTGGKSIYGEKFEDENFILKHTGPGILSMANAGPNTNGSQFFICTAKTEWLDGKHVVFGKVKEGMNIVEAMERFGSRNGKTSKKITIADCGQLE
Sequence of NRAS G12C (P01111 whole entry G12C): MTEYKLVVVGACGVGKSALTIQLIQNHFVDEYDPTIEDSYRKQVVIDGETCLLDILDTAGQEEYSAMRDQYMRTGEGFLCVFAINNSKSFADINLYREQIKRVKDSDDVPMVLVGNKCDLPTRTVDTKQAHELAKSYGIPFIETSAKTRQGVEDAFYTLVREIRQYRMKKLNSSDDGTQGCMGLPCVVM
Sequence of NRAS G12C (P62937 whole entry): as the sequence (P62937 whole entry) above
Sequence of NRAS WT (P01111 whole entry): as the sequence (P01111 whole entry G12C) above, with C12G counted along it
Sequence of NRAS WT (P62937 whole entry): as the sequence (P62937 whole entry) above
Sequence of KRAS WT (P01116 other isoform, or with tags, fused parts or gaps): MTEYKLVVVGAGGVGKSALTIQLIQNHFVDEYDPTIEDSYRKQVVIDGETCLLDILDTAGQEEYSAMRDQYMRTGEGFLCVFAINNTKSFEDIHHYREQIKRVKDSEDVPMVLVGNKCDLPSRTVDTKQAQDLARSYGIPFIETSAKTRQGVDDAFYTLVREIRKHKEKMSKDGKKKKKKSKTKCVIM
Sequence of KRAS WT (P62937 whole entry): as the sequence (P62937 whole entry) above
Sequence of KRAS G13C (P01116 other isoform, or with tags, fused parts or gaps G13C): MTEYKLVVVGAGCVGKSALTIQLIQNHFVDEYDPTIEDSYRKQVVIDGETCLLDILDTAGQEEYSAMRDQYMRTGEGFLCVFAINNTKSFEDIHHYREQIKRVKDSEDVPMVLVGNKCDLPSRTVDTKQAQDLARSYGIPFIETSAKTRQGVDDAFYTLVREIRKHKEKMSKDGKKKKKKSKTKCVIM
Sequence of KRAS G13C (P62937 whole entry): as the sequence (P62937 whole entry) above
Sequence of K-Ras G12C(GMP-PNP) binding to BRAF RBD (P01116 other isoform, or with tags, fused parts or gaps G12C): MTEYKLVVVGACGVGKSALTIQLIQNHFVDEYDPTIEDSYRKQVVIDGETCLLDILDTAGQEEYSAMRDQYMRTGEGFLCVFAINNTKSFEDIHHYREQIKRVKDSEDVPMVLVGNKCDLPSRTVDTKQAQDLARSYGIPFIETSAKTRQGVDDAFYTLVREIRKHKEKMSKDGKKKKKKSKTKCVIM
Sequence of K-Ras G12C(GMP-PNP) binding to BRAF RBD (P62937 whole entry): as the sequence (P62937 whole entry) above
Sequence of KRAS Q61H (P01116 other isoform, or with tags, fused parts or gaps Q61H): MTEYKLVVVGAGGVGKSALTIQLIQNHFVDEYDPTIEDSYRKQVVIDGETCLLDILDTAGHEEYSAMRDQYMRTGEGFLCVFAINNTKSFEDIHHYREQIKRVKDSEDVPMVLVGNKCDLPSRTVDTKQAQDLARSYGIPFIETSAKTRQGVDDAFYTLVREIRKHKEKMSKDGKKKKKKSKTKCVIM
Sequence of KRAS Q61H (P62937 whole entry): as the sequence (P62937 whole entry) above
Sequence of KRAS G12S (P01116 other isoform, or with tags, fused parts or gaps G12S): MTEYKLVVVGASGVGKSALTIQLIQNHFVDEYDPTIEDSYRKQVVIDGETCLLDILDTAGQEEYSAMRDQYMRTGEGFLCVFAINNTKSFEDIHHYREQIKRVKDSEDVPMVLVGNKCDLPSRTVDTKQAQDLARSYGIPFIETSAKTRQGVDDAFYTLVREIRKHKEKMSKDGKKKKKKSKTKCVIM
Sequence of KRAS G12S (P62937 whole entry): as the sequence (P62937 whole entry) above
Sequence of NRAS Q61K (P01111 whole entry Q61K): as the sequence (P01111 whole entry G12C) above, with C12G, Q61K counted along it
Sequence of NRAS Q61K (P62937 whole entry): as the sequence (P62937 whole entry) above
Sequence of NRAS Q61R (P01111 whole entry Q61R): as the sequence (P01111 whole entry G12C) above, with C12G, Q61R counted along it
Sequence of NRAS Q61R (P62937 whole entry): as the sequence (P62937 whole entry) above
Sequence of KRAS G13D (P01116 other isoform, or with tags, fused parts or gaps G13D): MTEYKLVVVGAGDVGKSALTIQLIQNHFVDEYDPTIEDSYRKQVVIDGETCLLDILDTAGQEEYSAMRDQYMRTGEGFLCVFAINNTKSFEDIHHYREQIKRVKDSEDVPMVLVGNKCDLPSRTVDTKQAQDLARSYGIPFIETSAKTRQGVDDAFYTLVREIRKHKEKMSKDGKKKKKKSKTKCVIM
Sequence of KRAS G13D (P62937 whole entry): as the sequence (P62937 whole entry) above
Sequence of KRAS G12C (P01116-2 other isoform, or with tags, fused parts or gaps G12C): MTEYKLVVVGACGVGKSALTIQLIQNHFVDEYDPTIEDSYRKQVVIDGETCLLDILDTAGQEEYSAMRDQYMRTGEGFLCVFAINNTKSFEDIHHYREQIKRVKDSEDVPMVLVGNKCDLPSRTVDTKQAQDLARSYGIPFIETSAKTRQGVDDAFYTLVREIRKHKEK
Sequence of KRAS G12C (P62937 whole entry): as the sequence (P62937 whole entry) above
Sequence of KRAS G12V (P01116 other isoform, or with tags, fused parts or gaps G12V): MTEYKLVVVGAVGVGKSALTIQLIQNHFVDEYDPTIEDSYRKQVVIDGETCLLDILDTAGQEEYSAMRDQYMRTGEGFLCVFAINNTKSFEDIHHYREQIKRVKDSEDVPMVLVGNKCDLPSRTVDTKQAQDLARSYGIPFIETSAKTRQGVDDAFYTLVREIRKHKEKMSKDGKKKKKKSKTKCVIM
Sequence of KRAS G12V (P62937 whole entry): as the sequence (P62937 whole entry) above

Row | SMILES | IC50 (NCI-H358 (K-Ras G12C)) | IC50 (KRAS G12C) | IC50 (NRAS G12C) | IC50 (KRAS G12V) | IC50 (NRAS Q61K) | IC50 (NRAS Q61R) | IC50 (NRAS WT) | IC50 (KRAS G12D) | IC50 (KRAS WT) | IC50 (KRAS G13C) | IC50 (KRAS G12S) | IC50 (KRAS Q61H) | IC50 (KRAS G13D) | IC50 [1] | IC50 ([2]; K-Ras G12V, 5-day treatment) | IC50 ([3]; K-Ras G12C, 5-day treatment) | IC50 [2] | IC50 [3]
1 | CCn1c(-c2cccnc2[C@H](C)OC)c2c3cc(ccc31)-c1cc(O)cc(c1)C[C@H](NC(=O)C(C)C1CCOCC1)C(=O)N1CCC[C@H](N1)C(=O)OCC(C)(C)C2 (stereo partly shown) [Compound A236] | > 10000 nM | 100 to 1000 nM and 1000 to 10000 nM | 100 to 1000 nM and 1000 to 10000 nM | 100 to 1000 nM and 1000 to 10000 nM | 100 to 1000 nM | 1000 to 10000 nM | 100 to 1000 nM | 1000 to 10000 nM and > 10000 nM | 100 to 1000 nM and 1000 to 10000 nM | 100 to 1000 nM | 100 to 1000 nM and 1000 to 10000 nM | 10 to 100 nM | 100 to 1000 nM and 1000 to 10000 nM | > 10000 nM |  |  |  | 
2 | CCn1c(-c2cccnc2[C@H](C)OC)c2c3cc(ccc31)-c1csc(n1)C[C@H](NC(=O)[C@H](C(C)C)N(C)C(=O)N1CCC1C(=O)O)C(=O)N1CCC[C@H](N1)C(=O)OCC(C)(C)C2 (stereo partly shown) [Compound A271] | > 10000 nM | 1000 to 10000 nM | 1000 to 10000 nM | 1000 to 10000 nM | 100 to 1000 nM | 1000 to 10000 nM | 1000 to 10000 nM | > 10000 nM | 1000 to 10000 nM | 1000 to 10000 nM | 1000 to 10000 nM | 100 to 1000 nM | > 10000 nM | > 10000 nM | > 10000 nM |  |  | 
3 | CCn1c(-c2cccnc2[C@H](C)OC)c2c3cc(ccc31)-c1csc(n1)C[C@H](NC(=O)[C@H](C(C)C)N(C)C(=O)N1CC[C@@]13CCCN(C)C3)C(=O)N1CCC[C@H](N1)C(=O)OCC(C)(C)C2 [Compound A468] | 10 to 100 nM | 100 to 1000 nM | 100 to 1000 nM | 1000 to 10000 nM | 100 to 1000 nM | 100 to 1000 nM | 100 to 1000 nM | 100 to 1000 nM | 100 to 1000 nM | 100 to 1000 nM | 100 to 1000 nM | 10 to 100 nM | 100 to 1000 nM | 100 to 1000 nM | 100 to 1000 nM |  |  | 
4 | CCn1c(-c2cccnc2[C@H](C)OC)c2c3cc(ccc31)-c1csc(n1)C[C@H](NC(=O)[C@H](C(C)C)N(C)C(=O)N(C)C[C@H]1CCN1C)C(=O)N1CCC[C@H](N1)C(=O)OCC(C)(C)C2 [Compound A469] | 100 to 1000 nM | 100 to 1000 nM | 100 to 1000 nM | 1000 to 10000 nM | 100 to 1000 nM | 1000 to 10000 nM | 100 to 1000 nM | 100 to 1000 nM | 100 to 1000 nM | 100 to 1000 nM | 100 to 1000 nM | 100 to 1000 nM | 100 to 1000 nM | 100 to 1000 nM | 100 to 1000 nM |  |  | 
5 | CCn1c(-c2cccnc2[C@H](C)OC)c2c3cc(ccc31)-c1csc(n1)C[C@H](NC(=O)[C@H](C(C)C)N(C)C(=O)N(C)C[C@H]1CCCN1C)C(=O)N1CCC[C@H](N1)C(=O)OCC(C)(C)C2 [Compound A473] | 10 to 100 nM | 100 to 1000 nM | 100 to 1000 nM | 1000 to 10000 nM | 1000 to 10000 nM | 1000 to 10000 nM | 100 to 1000 nM | 1000 to 10000 nM | 100 to 1000 nM | 100 to 1000 nM | 100 to 1000 nM | 100 to 1000 nM | 100 to 1000 nM | 100 to 1000 nM | 100 to 1000 nM |  |  | 
6 | CCn1c(-c2cccnc2[C@H](C)OC)c2c3cc(ccc31)-c1csc(n1)C[C@H](NC(=O)[C@H](C(C)C)N(C)C(=O)N1CCCC3(CN(C)C3)C1)C(=O)N1CCC[C@H](N1)C(=O)OCC(C)(C)C2 [Compound A589] |  | 100 to 1000 nM | 100 to 1000 nM | 100 to 1000 nM | 100 to 1000 nM | 100 to 1000 nM | 100 to 1000 nM | 100 to 1000 nM | 100 to 1000 nM | 100 to 1000 nM | 100 to 1000 nM | 10 to 100 nM | 100 to 1000 nM |  | 100 to 1000 nM | 10 to 100 nM |  | 
7 | CCn1c(-c2cccnc2[C@H](C)OC)c2c3cc(ccc31)-c1cc(cc(C(F)F)c1)C[C@H](NC(=O)[C@H](C(C)C)N(C)C(=O)[C@@H]1OCC[C@@H]1c1ccccc1)C(=O)N1CCC[C@H](N1)C(=O)OCC(C)(C)C2 [Compound A592] |  | 100 to 1000 nM | 100 to 1000 nM | 1000 to 10000 nM | 100 to 1000 nM | 1000 to 10000 nM | 1000 to 10000 nM | 1000 to 10000 nM | 1000 to 10000 nM | 100 to 1000 nM | 1000 to 10000 nM | 100 to 1000 nM | 1000 to 10000 nM |  |  |  | 1000 to 10000 nM | 100 to 1000 nM
8 | CCn1c(-c2cccnc2[C@H](C)OC)c2c3cc(ccc31)-c1csc(n1)C[C@H](NC(=O)[C@H](C(C)C)N(C)C(=O)N(C)C1CN(C)C1)C(=O)N1CCC[C@H](N1)C(=O)OCC(C)(C)C2 [Compound A611] |  | 100 to 1000 nM | 100 to 1000 nM | 1000 to 10000 nM | 100 to 1000 nM | 100 to 1000 nM | 100 to 1000 nM | 100 to 1000 nM | 100 to 1000 nM | 100 to 1000 nM | 100 to 1000 nM | 100 to 1000 nM | 100 to 1000 nM |  | 100 to 1000 nM | 100 to 1000 nM |  | 
9 | CCn1c(-c2cccnc2[C@H](C)OC)c2c3cc(ccc31)-c1cc(O)cc(c1)C[C@H](NC(=O)[C@H](C(C)C)N(C)C(=O)[C@@]1(F)CCN(C(=O)OC)C1)C(=O)N1CCC[C@H](N1)C(=O)OCC(C)(C)C2 [Compound A615] |  | 10 to 100 nM | 10 to 100 nM | 10 to 100 nM | 100 to 1000 nM | 100 to 1000 nM | 10 to 100 nM | 100 to 1000 nM | 10 to 100 nM | 10 to 100 nM | 10 to 100 nM | 10 to 100 nM | 10 to 100 nM |  | 10 to 100 nM | 10 to 100 nM |  | 
